# Read-outs that look alike come from different tables or passages of the source.
# Columns and labels:
# HIV-1RF [1] = assay: Post-exposure assay: compounds added after HIV-1 infection of CEM-SS cells, cell viability; format: cell-based; details: Human immunodeficiency virus 1, CEM-SS
# Description: (§1) The effects of pre- and post-infection PI treatment on CEM-SS toxicity were assessed. […] Cell toxicity was monitored six days after infection using XTT reagent. In the post-exposure assay, test compounds were added to cells 0, 24, 48, or 72 h after HIV-1 infection, and cell viability was measured six days post-infection.
# [2] = Plasma protein binding by equilibrium dialysis, human plasma; format: in vitro ADME; details: human, plasma
# Description: (§2) In assays to estimate binding of test compounds to plasma proteins, test compound solutions (5 μM) are prepared in buffer and species-specific plasma (final DMSO concentration 0.5%). The plasma-containing solution is added to one side of the membrane of an equilibrium dialysis system, and the plasma-free is added to the other side. Dialysis was allowed to reach equilibrium by incubation for two hours at 37° C. The concentration of compound on both sides of the membrane was measured using LC-MS/MS.
# CEM-SS cells = assay: Post-exposure assay: toxicity in CEM-SS cells; details: human
# Description: as §1
# HIV-1BaL = assay: HIV-1 p24 levels after infection of fresh human monocyte/macrophages; format: cell-based; details: Human immunodeficiency virus 1, Monocyte, 168 h, read-out: Monocyte/HIV-1BaL EC50, seven days, p24
# Description: Mononuclear cells were isolated from fresh human peripheral blood cells by Ficoll-Hypaque density gradient by centrifugation at 600 g for 30 minutes. Banded peripheral blood mononuclear cells (PBMCs) were aspirated from the resulting interface and washed with phosphate buffered saline by low speed centrifugation. […] Cells were allowed to attach for 2 to 12 h at 37° C., then washed with Dulbecco's phosphate buffered saline (DPBS). Monocyte-macrophage monolayer formation was induced by incubation in growth medium (RPMI 1640 medium supplemented with 10% fetal bovine serum, 2 mmol/L L-glutamine, 100 Units/mL penicllin and 10 μg/mL streptomycin) for 7 days. Residual PBMCs were removed by washing the cell monolayers with DPBS. After washing, test compound diluted in growth medium was added to cells. Immediately following test compound addition, HIV-1 virus was added to the cells at multiplicity of infection (MOI)=0.05-0.10. After 7 days in culture, HIV-1 replication was quantified by ELISA measurement of cell-free HIV-1 viral capsid protein (p24) in the tissue culture supernatant of treated monocyte-macrophage monolayers. ELISA to quantify p24 was performed according to manufacturer's instructions (Perkin Elmer, Waltham, Mass.). The quantity of free HIV-1 p24 antigen in the sample was determined by comparing its absorbance at 490 nm to that of control standards.
# (§3) Fresh human monocytes were infected with the BaL strain of HIV-1 in the presence of test compounds. After seven days in culture, HIV-1 replication was evaluated by measurement of HIV-1 viral capsid protein (p24) in the tissue culture supernatant (Table 7). […] A TI was calculated as described above using TC50 values derived from cell toxicity data in response to test compounds in the absence of viral infection.
# HIV-1RF [3] = assay: Pre-exposure assay: CEM-SS cells treated before HIV-1RF infection, cell viability; format: cell-based; details: Human immunodeficiency virus 1, CEM-SS
# Description: as §1
# human monocytes = assay: Toxicity in human monocytes in the absence of viral infection; details: human
# Description: as §3
# HIV-1 virions = assay: Infectivity of HIV-1 virions from treated cells on naive CEM-SS cells; format: cell-based
# Description: In concert with p24 analysis, cell supernatants collected from cells exposed to test compounds at 8, 16, or 24 hours post-infection were used to infect naïve CEM-SS cells. Cell viability was measured six days post-infection as a measure of virus infectivity (Table 5).
# HIV-1 HT/92/599 = assay: HIV-1 reverse transcriptase activity after infection of fresh human PBMCs; format: cell-based; details: read-out: PBMC/HIV-1HT/92/599 EC50 ± SD; seven days, reverse transcriptase activity
# Description: Fresh human peripheral blood mononuclear cells (PBMCs) obtained from a commercial source were purified following centrifugation using a Ficoll-Hypaque density gradient. Viable cells were induced to proliferate in the presence of PHA-P and recombinant human IL-2 for 72 hours. […] Cell supernatant containing HIV-1 viral was incubated for 90 minutes at 37° C. with a reaction mixture containing EGTA, Triton X-100, Tris (pH 7.4), DTT, MgCl2, poly rA, oligo dT, and tritiated thymidine triphosphate (TTP). Incorporation of TTP into DNA was monitored by spotting the reaction mixture onto a DEAE filter mat, followed by washes with 5% phosphate buffer, distilled water, and 70% ethanol, and subsequent drying of the mat. Radioactivity was measured using a Wallac 1450 Microbeta Trilux liquid scintillation counter using Opti-Fluor O. Test compound-associated toxicity was measured in PBMCs cultured for seven days in the absence of virus using XTT reagent. […] TI was calculated as TC50/EC50.
# HIV-1RF [4] = assay: p24 levels after single high MOI HIV-1RF infection of CEM-SS cells, time of addition; format: cell-based
# Description: The cytoprotective effect against HIV of the PEG-protease inhibitor conjugates was evaluated during a single round of high multiplicity of infection (“MOI”) HIV-1 infection in CEM-SS cells. CEM-SS cells were incubated for one hour with a single high MOI dose of HIV-1RF. Cells were washed to remove free virus, then test compounds were added to cells at 0, 2, 4, 6, 8, 16, or 24 hours after HIV-1 infection. To monitor viral replication, cell supernatants were analyzed at 30 hours post-infection for levels of the HIV capsid protein p24 (FIG. 1). […] Nevirapine inhibited viral replication at 1 μM when added to cells up to four hours post-infection, and at 10 μM when added up to eight hours post-infection.
# [5] = system: human liver microsomal proteins; assay: Microsomal protein binding by equilibrium dialysis; format: in vitro ADME; details: human liver microsomes, 3 μM, fraction unbound
# Description: PEGylated protease inhibitors were evaluated for their propensity to be bound by proteins in normal human plasma or in human liver microsome preparations using equilibrium dialysis analysis. For microsomal protein binding, test compound (final concentration=3 μM) was diluted into either buffer alone or buffer containing human liver microsomes. The protein-free and microsome-containing solutions were then added to either side of an equilibrium dialysis system and allowed to reach equilibrium at 37° C. The concentration of compound on both sides of the membrane at equilibrium was quantified by LC-MS/MS, and the fraction of compound that remains unbound (Fu) is calculated.
# Caco-2 cells = assay: Bi-directional permeability in Caco-2 monolayers; details: Caco-2 monolayers, apical to basolateral
# Description: Absorption properties of various compounds were measured using bi-directional permeability assays in Caco-2 cells. […] The efflux ratio is calculated as the ratio of the Papp(B→A)/Papp(A→B).
# human plasma proteins = assay: Plasma protein binding by equilibrium dialysis, human plasma; format: in vitro ADME; details: human plasma, 5 μM, fraction unbound
# Description: as §2
# human hepatocytes = assay: Metabolic stability in cryopreserved human hepatocytes; details: human hepatocytes
# Description: Metabolism of PI conjugates was investigated by monitoring the levels of unmetabolized parent compound following incubation with cryopreserved human or monkey hepatocytes. The use of whole hepatocytes rather than microsomes requires that the drugs cross the cell membrane to interact with intracellularly-localized metabolic enzymes, and thus provides the most relevant in vitro system for understanding overall metabolic stability of these compounds.
# Test compounds (0.1 μM or 3 μM, as indicated) are incubated with cryopreserved human hepatocytes at a cell density of 0.5×10^6 viable cells/mL. […] Duplicate samples (50 μL) are removed from the incubation mixture at various timepoints up to four hours (for 0.1 μM test compound concentration), or one or two hours (for 3 μM test compound concentration), and the reaction is quenched by the addition of methanol containing internal standard (100 μL). The samples are centrifuged (2500 rpm at 4° C. for 20 min), and the supernatants at each time point pooled for cassette analysis by LC-MS/MS.
# CYP3A4 [6] = molecular target: T1, CYP3A4 (Homo sapiens (Human), UniProt P08684); assay: Metabolic stability in CYP3A4-expressing Bactosomes; format: in vitro ADME; details: 5 μM
# T1 sequence (P08684 whole entry, canonical isoform): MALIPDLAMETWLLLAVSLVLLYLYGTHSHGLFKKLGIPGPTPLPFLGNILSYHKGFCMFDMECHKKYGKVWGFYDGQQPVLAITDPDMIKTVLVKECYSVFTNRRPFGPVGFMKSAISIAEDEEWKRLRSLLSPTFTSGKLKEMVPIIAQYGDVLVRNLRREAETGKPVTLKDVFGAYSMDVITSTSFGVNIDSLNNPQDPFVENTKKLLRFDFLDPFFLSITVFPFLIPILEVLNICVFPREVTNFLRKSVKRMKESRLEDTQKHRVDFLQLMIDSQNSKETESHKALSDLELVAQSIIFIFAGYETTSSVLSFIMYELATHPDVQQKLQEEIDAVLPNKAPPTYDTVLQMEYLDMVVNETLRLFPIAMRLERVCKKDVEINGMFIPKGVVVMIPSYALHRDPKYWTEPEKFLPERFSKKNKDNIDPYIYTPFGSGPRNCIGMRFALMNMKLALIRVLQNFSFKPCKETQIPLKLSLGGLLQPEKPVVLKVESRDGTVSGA
# Description: (§4) Compounds were evaluated for their propensity to act as substrates of individual human cytochrome P450 enzymes using a bacterial membrane preparation co-expressing human NADPH-cytochrome P450 reductase with either human CYP3A4 or CYP2D6 (Bactosomes™ Cypex, Ltd., Dundee, UK). In vitro metabolism studies using Bactosomes™ expressing individual human CYP isoforms monitor the extent to which a test compound is metabolized by a single CYP450 enzyme and allow identification of the CYP isoforms that may be responsible for the metabolism of a test compound. Timecourse analyses of test molecules (5 μM) with CYP2D6- or CYP3A4-expressing Bactosomes™ (100 pmol/mL) are performed in buffer (0.1 M phosphate, pH 7.4) in a final reaction volume of 25 μL. […] Reactions are terminated by the addition of methanol (50 μL) containing internal standard at 0, 5, 15, 30, and 45 minutes.
# CYP2D6 = CYP2D6 (Homo sapiens (Human), UniProt P10635); assay: Metabolic stability in CYP2D6-expressing Bactosomes; format: in vitro ADME; details: 5 μM
# Chain of CYP2D6 (P10635 whole entry): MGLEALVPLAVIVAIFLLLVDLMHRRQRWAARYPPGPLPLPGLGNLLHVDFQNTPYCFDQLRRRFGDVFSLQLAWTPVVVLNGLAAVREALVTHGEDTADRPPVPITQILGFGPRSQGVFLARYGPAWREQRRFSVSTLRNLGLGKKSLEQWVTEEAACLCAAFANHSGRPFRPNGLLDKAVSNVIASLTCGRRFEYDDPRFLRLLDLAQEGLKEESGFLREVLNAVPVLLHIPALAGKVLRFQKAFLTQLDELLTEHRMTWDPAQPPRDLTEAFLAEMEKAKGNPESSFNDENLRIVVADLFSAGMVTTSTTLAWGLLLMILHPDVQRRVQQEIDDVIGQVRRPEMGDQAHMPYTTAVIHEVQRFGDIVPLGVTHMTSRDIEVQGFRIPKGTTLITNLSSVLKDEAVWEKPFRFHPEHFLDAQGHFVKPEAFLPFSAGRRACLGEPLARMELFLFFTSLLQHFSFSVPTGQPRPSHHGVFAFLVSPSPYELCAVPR
# Description: as §4
# CYP3A4 [7] = molecular target: T1, CYP3A4; assay: CYP450 inhibition in human liver microsomes: CYP3A4;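 further: incubation at 37 °C started by adding 1 mM NADPH, with formation of the probe metabolite measured via LC-MS/MS or fluorescent detection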
# [8] = Metabolic stability in human liver microsomes; details: human liver microsomes, 3 μM
# Description: The human liver microsome-mediated biotransformation of PEG-PI compounds was determined by monitoring the loss of the substrate as a function of time. […] Test compounds (3 μM final concentration) were preincubated with pooled (male and female) human liver microsomes (0.5 mg/mL final protein concentration) in buffer (0.1M phosphate buffer, pH 7.4) at 37° C. Reactions were initiated by the addition of NADPH (1 mM final concentration), and allowed to continue for 0, 5, 15, 30, and 45 minutes. […] Sample supernatants are analyzed by liquid chromatography-tandem mass spectrometry.
# HIV-1RF [9] = assay: Anti-HIV cytoprotection in CEM-SS cells infected with HIV-1RF (XTT); format: cell-based; details: six days, XTT; read-out: CEM-SS/HIV-1RF EC50 ± SD
# Description: To evaluate whether conjugated protease inhibitors retain the ability to protect against HIV-1 infection, CEM-SS cells infected with the RF strain of HIV-1 were treated with test compounds for six days, and then cell viability was monitored using the tetrazolium dye XTT. […] A value for Therapeutic Index (TI) was calculated as TC50/EC50.
smiles,measurement,setting,value
CC(C)(C)NC(=O)[C@@H]1C[C@@H]2CCCC[C@@H]2CN1C[C@@H](O)[C@H](Cc1ccccc1)NC(=O)[C@H](CC(N)=O)NC(=O)c1ccc2ccccc2n1 [Saquinavir],EC50,HIV-1RF [1]; 0 h,< 3 nM
same,EC50,HIV-1RF [1]; 24 h,4 nM
same,EC50,HIV-1RF [1]; 48 h,5 nM
same,EC50,HIV-1RF [1]; 72 h,10 nM
same,"fraction unbound at 2 h, 5 μM",[2],0.0353 ± 0.00151
same,TC50,CEM-SS cells; 3 days,>1000 nM
same,TC50,CEM-SS cells; 4 days,>1000 nM
same,TC50,CEM-SS cells; 5 days,>1000 nM
same,TC50,CEM-SS cells; 6 days,>1000 nM
same,EC50,HIV-1BaL,40 nM
same,EC50,HIV-1RF [3]; 2 h,20 nM
same,EC50,HIV-1RF [3]; 8 h,50 nM
same,EC50,HIV-1RF [3]; 24 h,40 nM
same,TC50,human monocytes,>1000 nM
same,Percent Infectivity of HIV-1 Virions in comparison to virus-alone control,"HIV-1 virions; 0.01 μM, added 8 h post-infection",100.0%
same,Percent Infectivity of HIV-1 Virions in comparison to virus-alone control,"HIV-1 virions; 0.01 μM, added 16 h post-infection",117.0%
same,Percent Infectivity of HIV-1 Virions in comparison to virus-alone control,"HIV-1 virions; 0.01 μM, added 24 h post-infection",404.8%
same,Percent Infectivity of HIV-1 Virions in comparison to virus-alone control,"HIV-1 virions; 0.1 μM, added 8 h post-infection",5.6%
same,Percent Infectivity of HIV-1 Virions in comparison to virus-alone control,"HIV-1 virions; 0.1 μM, added 16 h post-infection",10.0%
same,Percent Infectivity of HIV-1 Virions in comparison to virus-alone control,"HIV-1 virions; 0.1 μM, added 24 h post-infection",128.0%
same,reduction of virion infectivity vs virus-only control,HIV-1 virions; 1 μM at 24 hours post-infection,~90%
same,Percent Infectivity of HIV-1 Virions in comparison to virus-alone control,"HIV-1 virions; 1 μM, added 8 h post-infection",0.1%
same,Percent Infectivity of HIV-1 Virions in comparison to virus-alone control,"HIV-1 virions; 1 μM, added 16 h post-infection",7.8%
same,Percent Infectivity of HIV-1 Virions in comparison to virus-alone control,"HIV-1 virions; 1 μM, added 24 h post-infection",12.8%
same,reduction of virion infectivity vs virus-only control,HIV-1 virions; 0.1 or 1 μM at 8 and 16 hours post-infection,at least 90%
same,EC50,HIV-1 HT/92/599,9 nM
same,time of addition up to which antiviral activity (reduced p24) was seen,HIV-1RF [4]; 0.1 μM,up to 16 hours post-infection
same,time of addition up to which antiviral activity (reduced p24) was seen,HIV-1RF [4]; 1 μM,up to 24 hours post-infection
COCCOCCOCCNc1ccc(S(=O)(=O)N(CC(C)C)CC(O)[C@H](Cc2ccccc2)NC(=O)O[C@H]2CO[C@H]3OCC[C@H]32)cc1 (some centres unmarked) [mPEG3-N-Darunavir],Microsomal Protein Binding Fu ± SD,[5],0.96 ± 0.0407
same,"A→B, ×10^−6",Caco-2 cells,2.52 cm/s
same,Plasma Protein Binding Fu ± SD,human plasma proteins,0.236 ± 0.0292
same,CLint ± SEM,"human hepatocytes; 0.1 uM, up to four hours",48.0 ± 4.75 μL/min/10^6 cells
same,t1/2,"human hepatocytes; 0.1 uM, up to four hours",28.9 min
same,CLint ± SEM,"human hepatocytes; 3 uM, incubated up to one hour",18.2 ± 1.47 μL/min/10^6 cells
same,3A4 t1/2 ± SEM,CYP3A4 [6],66.6 ± 4.88 min
same,2D6 t1/2 ± SEM,CYP2D6,68.4 ± 18.9 min
same,IC50,"CYP3A4 [7]; read-out: CYP3A4 IC50 Midazolam, probe substrate midazolam",1200 nM
same,IC50,"CYP3A4 [7]; read-out: CYP3A4 IC50 Testosterone, probe substrate testosterone",3100 nM
same,CLint ± SEM,[8],385 ± 0.718 μL/min/mg protein
same,t1/2,[8],3.60 min
same,EC50,HIV-1RF [9],< 0.7 nM

# Source: patent publication US10806794B2, “Protease inhibitors having enhanced features” (priority 2008, dated 2020)
